We go through two molecules from ChEMBL document CHEMBL4823243, “Synergistic induction of apoptosis in resistant head and neck carcinoma and leukemia by alkoxyamide-based histone deacetylase inhibitors” (Eur J Med Chem, 2021).

Molecules are shown by their SMILES. Active and inactive are the calls of the source. The calls are words filed in the database; no cut-off is given here.

As usually defined, the IC75 is the point of the concentration-response curve where the effect stands at 75%. By IC50 is commonly meant the midpoint of a concentration-inhibition curve.

In assay [1] the test system is HL-60. Nature of the assay: Induction of apoptosis in human HL-60 cells assessed as caspase 3/7 activation at IC75 concentration incubated at 48 hrs. The format is functional.
Assay [2] deals with HL-60. Nature of the assay: Induction of apoptosis in human HL-60 cells assessed as caspase 3/7 activation incubated for 48 hrs by Caspase3/7 detection reagent based assay. Type of assay: functional, cell-based. To be noted: HL-60, 48 h.
The subject of assay [3] is CAL-27. Nature of the assay: Induction of apoptosis in human CAL-27 cells assessed as caspase 7 activation at 2 uM in presence of pretreated for 24 hrs followed by cisplatin treatment and further incubated for 18 hrs by Caspase3/7 detection reagent based assay. Type of assay: functional, cell-based. To be noted: time 42.0 hrs.
The test system of assay [4] is CAL-27. Nature of the assay: Induction of apoptosis in human CAL-27 cells assessed as caspase 3 activation at 2 uM in presence of pretreated for 24 hrs followed by cisplatin treatment and further incubated for 18 hrs by Caspase3/7 detection reagent based assay. The format is functional, cell-based. Particulars: time 42.0 hrs.
The target of assay [5] is T1, Histone deacetylase (Homo sapiens) (UniProt Q13547+O15379+Q9UBN7+Q92769+Q9UQL6+Q8WUI4+Q9BY41+Q96DB2+P56524+Q9UKV0+Q969S8). Nature of the assay: Inhibition of HDAC in human Cal27CisR cells assessed as combination index at 2 uM measured in presence of 20 uM cDDP by MTT-based Chou-Talalay method. Type of assay: cell-based.
The target of assay [6] is T1, Histone deacetylase (Homo sapiens). Nature of the assay: Inhibition of HDAC in human CAL-27 cells assessed as combination index at 0.75 uM measured in presence of 10 uM cDDP by MTT-based Chou-Talalay method. The format is cell-based.
The target is the same in assay [7]. Nature of the assay: Inhibition of HDAC in human Cal27CisR cells assessed as combination index at 2 uM measured in presence of 10 uM cDDP by MTT-based Chou-Talalay method. Type of assay: cell-based.
Assay [8] shares this target. Nature of the assay: Inhibition of HDAC in human Cal27CisR cells assessed as combination index at 1.5 uM measured in presence of 50 uM cDDP by MTT-based Chou-Talalay method. Type of assay: cell-based.
Assay [9] has the same target. Nature of the assay: Inhibition of HDAC in human CAL-27 cells assessed as combination index at 1.25 uM measured in presence of 10 uM cDDP by MTT-based Chou-Talalay method. The format is cell-based.
For assay [10] the target is unchanged. Nature of the assay: Inhibition of HDAC in human CAL-27 cells assessed as combination index at 1.5 uM measured in presence of 5 uM cDDP by MTT-based Chou-Talalay method. Type of assay: cell-based.
The target is the same in assay [11]. Nature of the assay: Inhibition of HDAC in human Cal27CisR cells assessed as combination index at 0.75 uM measured in presence of 50 uM cDDP by MTT-based Chou-Talalay method. Type of assay: cell-based.
Assay [12] has as its system CAL-27. Nature of the assay: Induction of apoptosis in cisplatin resistant human CAL-27 cells assessed as caspase 7 activation at 2 uM in presence cisplatin of pretreated for 24 hrs followed by cisplatin treatment and further incubated for 18 hrs by Caspase3/7 detection reagent based assay. The format is functional, cell-based. Particulars: time 42.0 hrs.

On to `O=C(CCCCCONC(=O)c1ccc2ccccc2n1)NO`, for which the IC75 in [1] stood at 320 nM. In addition, the IC50 in [2] was found to be 214 nM.

For `O=C(CCCCCONC(=O)c1nccc2ccccc12)NO`, the outcome in assay [3], in assay [4] and in assay [12] was Active. The CI in assay [5] worked out at 0.35; in assay [6], 0.51; in [7], 0.58; in [8], 0.38; in assay [9] it was 0.3; in assay [10] it was 0.37. The CI in assay [11] was 0.56.
